A short description of data set [1]: Stability in Simulated Gastric Fluid (SGF). Also noted: key: % parent compound remaining relative to 0-minute sample. The format is in vitro ADME. In outline:
(§1)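 Compound at 2 μg/mL final was incubated at 37 °C with shaking in SGF with pepsin (pH 1.2) or SIF with pancreatin (pH 6.8), sampled from 0 to 60 min. After acetonitrile precipitation, LC-MS/MS gave % parent remaining vs 0 min; half-life came from ln(% remaining) vs time.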

The nature of data set [2]: Plasma Stability. The format is in vitro ADME, human. The essentials:
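Compounds incubated at 1 μM in fresh human plasma for 1 hour at 37° C, then protein-precipitated with acetonitrile/formic acid containing internal standard. Remaining parent measured by LC-MS/MS in triplicate, expressed as percent of control remaining.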

A short description of data set [3]: Caco-2 Permeability Assay. The data set is classed as in vitro ADME, human. The following applies: human. The essentials:
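Caco-2 monolayers cultured 21 days (TEER >600 […]); test article at 10 μM in HBSS/HEPES pH 7.4 transport medium, dosed apical or basolateral, ±Pgp inhibitor. Incubated 90 min at 37 °C; both compartments quantified by LC-MS/MS. Papp (A→B, B→A), efflux ratio and % recovery calculated.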
In general terms: Caco-2 monolayers are a common model of the intestinal barrier.

Data set [4] in a line: Stability in Simulated Intestinal Fluid (SIF). The data set is classed as in vitro ADME. Also noted: key: % parent compound remaining relative to 0-minute sample. In outline:
as §1

The mark [5] stands for this setting: bare number, unit or time not given.
Setting [6] is: simulated gastric fluid, remaining at 1 h.
[7] abbreviates: Caco-2, pH 7.4, Caco-2 monolayer.
Where [8] appears, read: simulated intestinal fluid, remaining at 1 h.

Here are results for 15 compounds from US20240067651A1 (Biohaven Therapeutics Ltd., priority 2019, published 2024).

As a reminder, the Papp is a coefficient for how fast a substance crosses the barrier.

A value given as a limit tells only on which side of the number the result lay.

As for `CC(C)OCCn1c(=S)[nH]c(=O)c2c1ccn2COC(=O)CCCCOC(=O)CN.O=C(O)C(F)(F)F` [Example 330, trifluoroacetic acid {4-oxo-1-[2-(propan-2-yloxy)ethyl]-2-sulfanylidene-1H,2H,3H,4H,5H-pyrrolo[3,2-d]pyrimidin-5-yl}methyl 5-[(2-aminoacetyl)oxy]pentanoate], in data set [1] (% remaining @ 1 h), the SGF is recorded as 84% @ 1 h. In addition, the “human Plasma stability” value in data set [2] (% remaining @ 1 h) is 2% @ 1 h. This compound also displayed a Papp at 90 min, 10 µM in data set [3] (Caco-2, pH 7.4) of 0.641 ×10⁻⁶ cm/s. Further, in data set [4] (% remaining @ 1 h), the SIF is recorded as 7% @ 1 h.
`CC(C)OCCn1c(SCOC(=O)CCCCOC(=O)CN)nc(=O)c2c1ccn2COC(=O)CCCCOC(=O)CN.O=C(O)C(F)(F)F.O=C(O)C(F)(F)F` [Example 331, bis (trifluoroacetic acid) ({5-[{{5-[(2-aminoacetyl)oxy]pentanoyl}oxy)meth-yl]-4-oxo-1-[2-(propan-2-yloxy)ethyl]-1H,4H,5H-pyrrolo[3,2-d]pyrimidin-2-yl}sulfanyl)methyl 5-[(2-aminoacetyl)oxy]pentanoate]: the SGF in data set [1] (% remaining @ 1 h) is recorded as 93% @ 1 h. In addition, in data set [2] (% remaining @ 1 h), the “human Plasma stability” value is listed as 1% @ 1 h. In data set [3] (Caco-2, pH 7.4), the apparent permeability (Papp) at 90 min, 10 µM came out at 3.68 ×10⁻⁶ cm/s. Moreover, in data set [4] (% remaining @ 1 h), the SIF is listed as 1% @ 1 h.
As for `CC(C)OCCn1c(=S)n(COC(=O)CCCCOC(=O)CN)c(=O)c2c1ccn2COC(=O)CCCCOC(=O)CN.O=C(O)C(F)(F)F.O=C(O)C(F)(F)F` [Example 332, bis (trifluoroacetic acid) {3-[{{5-[(2-aminoacetyl)oxy]pentanoyl}oxy)meth-yl]-4-oxo-1-[2-(propan-2-yloxy)ethyl]-2-sulfanylidene-1H,2H,3H,4H,5H-pyrrolo[3,2-d]pyrimidin-5-yl}methyl 5-[(2-aminoacetyl)oxy]pentanoate], in data set [1] (% remaining @ 1 h), the SGF was 91% @ 1 h. Further, in data set [2] (% remaining @ 1 h), the “human Plasma stability” value is 4% @ 1 h. In data set [3] (Caco-2, pH 7.4), this compound had a Papp at 90 min, 10 µM of less than 0.073 ×10⁻⁶ cm/s. For the same compound, in data set [4] (% remaining @ 1 h), the SIF is given as 4% @ 1 h.
As for `CC(C)OCCn1c(=S)[nH]c(=O)c2c1ccn2COC(=O)CCCCOC(=O)[C@@H](NC(=O)OC(C)(C)C)C(C)C` [Example 333, {4-oxo-1-[2-(propan-2-yloxy)ethyl]-2-sulfanylidene-1H,2H,3H,4H,5H-pyrrolo[3,2-d]pyrimidin-5-yl}methyl 5-{[(2S)-2-{[(tert-butoxy)carbonyl]amino}-3-methylbutanoyl]oxy}pentanoate], the SGF in data set [1] (% remaining @ 1 h) is 98% @ 1 h. For the same compound, the “human Plasma stability” value in data set [2] (% remaining @ 1 h) is recorded as 5% @ 1 h. In addition, the Papp at 90 min, 10 µM in data set [3] (Caco-2, pH 7.4) is less than 0.072 ×10⁻⁶ cm/s. Also, the SIF in data set [4] (% remaining @ 1 h) was 4% @ 1 h.
As for `CC(C)OCCn1c(=S)[nH]c(=O)c2c1ccn2COC(=O)CCCCOC(=O)[C@H](Cc1ccccc1)NC(=O)OC(C)(C)C` [Example 334, {4-oxo-1-[2-(propan-2-yloxy)ethyl]-2-sulfanylidene-1H,2H,3H,4H,5H-pyrrolo[3,2-d]pyrimidin-5-yl}methyl 5-{[(2S)-2-{[(tert-butoxy)carbonyl]amino}-3-phenylpropanoyl]oxy}pentanoate], in data set [1] (setting [5]), the SGF is 90. The “human Plasma stability” value in data set [2] (% remaining @ 1 h) was 58% remaining. The same compound had an apparent permeability coefficient (Papp) at 90 min, 10 µM in data set [3] (Caco-2, pH 7.4) of 6.26 ×10⁻⁶ cm/s. The SIF in data set [4] (setting [5]) is recorded as 2.
Regarding `CC(C)OCCn1c(=S)[nH]c(=O)c2c1ccn2COC(=O)CCCCOC(=O)[C@@H](N)C(C)C.O=C(O)C(F)(F)F` [Example 335, trifluoroacetic acid {4-oxo-1-[2-(propan-2-yloxy)ethyl]-2-sulfanylidene-1H,2H,3H,4H,5H-pyrrolo[3,2-d]pyrimidin-5-yl}methyl 5-{[(2S)-2-amino-3-methylbutanoyl]oxy}pentanoate], the SGF in data set [1] (setting [5]) is reported as 99. Further, the “human Plasma stability” value in data set [2] (% remaining @ 1 h) was 3% remaining. The compound further showed a Papp at 90 min, 10 µM in data set [3] (Caco-2, pH 7.4) of 3.32 ×10⁻⁶ cm/s. For the same compound, the SIF in data set [4] (setting [5]) is reported as 9.
On the same counts, the results for `CC(C)OCCn1c(SCO)nc(=O)c2[nH]ccc21` [Example 336, 2-[(hydroxymethyl)sulfanyl]-1-[2-(propan-2-yloxy)ethyl]-1H,4H,5H-pyrrolo[3,2-d]pyrimidin-4-one] are 93, 73% remaining, 1.82 ×10⁻⁶ cm/s and 6.
For the compound `CC(C)OCCn1c(=S)n(COC(=O)CCCCOC(=O)[C@H](N)C(C)C)c(=O)c2c1ccn2COC(=O)CCCCOC(=O)[C@H](N)C(C)C.O=C(O)C(F)(F)F.O=C(O)C(F)(F)F` [Example 339, bis(trifluoroacetic acid) (3-{[(5-{[(2R)-2-amino-3-methylbutanoyl]oxy}pentanoyl)oxy]methyl}-4-oxo-1-[2-(propan-2-yloxy)ethyl]-2-sulfanylidene-1H,2H,3H,4H,5H-pyrrolo[3,2-d]pyrimidin-5-yl)methyl 5-{[(2R)-2-amino-3-methylbutanoyl]oxy}pentanoate], the SGF in data set [1] (setting [5]) was 99. Also, the “human Plasma stability” value in data set [2] (% remaining @ 1 h) is on record as 44% remaining. Also, in data set [3] (Caco-2, pH 7.4), the Papp at 90 min, 10 µM was 3.86 ×10⁻⁶ cm/s. Further, the SIF in data set [4] (setting [5]) is 72.
As to `CC(C)OCCn1c(=S)[nH]c(=O)c2c1ccn2COC(=O)CCCCOC(=O)[C@@H](N)Cc1ccccc1.O=C(O)C(F)(F)F` [Example 340, trifluoroacetic acid {4-oxo-1-[2-(propan-2-yloxy)ethyl]-2-sulfanylidene-1H,2H,3H,4H,5H-pyrrolo[3,2-d]pyrimidin-5-yl}methyl 5-{[(2S)-2-amino-3-phenylpropanoyl]oxy}pentanoate], in data set [1] (setting [5]), the SGF is 100. In data set [2] (% remaining @ 1 h), the “human Plasma stability” value is given as 4% remaining. In addition, the Papp at 90 min, 10 µM in data set [3] (Caco-2, pH 7.4) turned out to be 0.644 ×10⁻⁶ cm/s. For the same compound, the SIF in data set [4] (setting [5]) is recorded as 99.
With `CC(C)OCCn1c(=S)[nH]c(=O)c2c1ccn2COC(=O)CCCCOC(=O)[C@H](N)Cc1ccccc1.O=C(O)C(F)(F)F` [Example 341, trifluoroacetic acid {4-oxo-1-[2-(propan-2-yloxy)ethyl]-2-sulfanylidene-1H,2H,3H,4H,5H-pyrrolo[3,2-d]pyrimidin-5-yl}methyl 5-{[(2R)-2-amino-3-phenylpropanoyl]oxy}pentanoate], in data set [1] (setting [5]), the SGF was 99. The “human Plasma stability” value in data set [2] (% remaining @ 1 h) came to 1% remaining. In data set [3] (Caco-2, pH 7.4), this compound returned a Papp at 90 min, 10 µM of 0.259 ×10⁻⁶ cm/s. For the same compound, in data set [4] (setting [5]), the SIF was 33.
Turning to `CC(C)C[C@H](N)C(=O)OCCCCC(=O)OCn1ccc2c1c(=O)[nH]c(=S)n2CCOC(C)C.O=C(O)C(F)(F)F` [Example 345, trifluoroacetic acid 5-oxo-5-({4-oxo-1-[2-(propan-2-yloxy)ethyl]-2-sulfanylidene-1H,2H,3H,4H,5H-pyrrolo[3,2-d]pyrimidin-5-yl}methoxy)pentyl (2S)-2-amino-4-methylpentanoate], the SGF in data set [1] (% remaining @ 1 h) is on record as 71% remaining. In addition, the “human Plasma stability” value in data set [2] (% remaining @ 1 h) is given as 77% remaining. Moreover, the Papp at 90 min, 10 µM in data set [3] (Caco-2, pH 7.4) is less than 0.0662 ×10⁻⁶ cm/s. Besides, the SIF in data set [4] (% remaining @ 1 h) is given as 2% remaining at.
On to `CC(C)C[C@@H](NC(=O)OC(C)(C)C)C(=O)OCCCCC(=O)OCn1ccc2c1c(=O)[nH]c(=S)n2CCOC(C)C` [Example 347, 5-oxo-5-({4-oxo-1-[2-(propan-2-yloxy)ethyl]-2-sulfanylidene-1H,2H,3H,4H,5H-pyrrolo[3,2-d]pyrimidin-5-yl}methoxy)pentyl (2R)-2-{[(tert-butoxy)carbonyl]amino}-4-methylpentanoate], for which, in data set [1] (% remaining @ 1 h), the SGF is given as 98% remaining. In addition, the “human Plasma stability” value in data set [2] (% remaining @ 1 h) came out at 16% remaining. The compound further returned a Papp at 90 min, 10 µM in data set [3] (Caco-2, pH 7.4) of 1.06 ×10⁻⁶ cm/s. Further, in data set [4] (% remaining @ 1 h), the SIF is listed as 4% remaining.
For the compound `CC(C)C[C@@H](N)C(=O)OCCCCC(=O)OCn1ccc2c1c(=O)[nH]c(=S)n2CCOC(C)C.O=C(O)C(F)(F)F` [Example 350, trifluoroacetic acid 5-oxo-5-({4-oxo-1-[2-(propan-2-yloxy)ethyl]-2-sulfanylidene-1H, 2H,3H,4H,5H-pyrrolo[3,2-d]pyrimidin-5-yl}methoxy)pentyl (2R)-2-amino-4-methylpentanoate], the SGF in data set [1] (setting [6]) is 29% remaining. Moreover, the “human Plasma stability” value in data set [2] (human plasma, remaining at 1 h) worked out at 44% remaining. The same compound registered an apparent permeability coefficient (Papp) at 90 min, 10 µM in data set [3] (setting [7]) of 0.0782 ×10⁻⁶ cm/s. Also, the SIF in data set [4] (setting [8]) was 52% remaining.
For `CSCC[C@H](NC(=O)OC(C)(C)C)C(=O)OCCCCC(=O)OCn1ccc2c1c(=O)[nH]c(=S)n2CCOC(C)C` [Example 352, {4-oxo-1-[2-(propan-2-yloxy)ethyl]-2-sulfanylidene-1H,2H,3H,4H,5H-pyrrolo[3,2-d]pyrimidin-5-yl}methyl 5-{[(2S)-2-{[(tert-butoxy)carbonyl]amino}-4-(methylsulfanyl)butanoyl]oxy}pentanoate], the SGF in data set [1] (setting [6]) is recorded as 92% remaining. Besides, in data set [2] (human plasma, remaining at 1 h), the “human Plasma stability” value is listed as 9% remaining. The compound also gave an apparent permeability coefficient (Papp) at 90 min, 10 µM in data set [3] (setting [7]) of 2.03 ×10⁻⁶ cm/s. The SIF in data set [4] (setting [8]) is 9% remaining.
For the compound `CSCC[C@H](N)C(=O)OCCCCC(=O)OCn1ccc2c1c(=O)[nH]c(=S)n2CCOC(C)C.O=C(O)C(F)(F)F` [Example 353, trifluoroacetic acid {4-oxo-1-[2-(propan-2-yloxy)ethyl]-2-sulfanylidene-1H,2H,3H,4H,5H-pyrrolo[3,2-d]pyrimidin-5-yl}methyl 5-{[(2S)-2-amino-4-(methylsulfanyl)butanoyl]oxy}pentanoate], in data set [1] (setting [6]), the SGF was 33% remaining. Further, the “human Plasma stability” value in data set [2] (human plasma, remaining at 1 h) is given as 3% remaining. The same compound registered a Papp at 90 min, 10 µM in data set [3] (setting [7]) of 0.549 ×10⁻⁶ cm/s. The SIF in data set [4] (setting [8]) is given as 66% remaining.
